Columns and labels:
canola (Brassica napus) [1] = test: Canola seed treatment field test: canola plant yield under natural flea beetle infestation; format: in vivo; conditions: 107 days after canola emergence
Experimental: (§1) The effectiveness of sulfoxaflor as a canola (Brassica napus) seed treatment to control feeding damage by cabbage flea beetle (Phyllotreta cruciferae) was evaluated against the commercial standard thiamethoxam (Helix Xtra). Canola seeds were sprayed with a range of insecticides, including Helix Xtra at a use rate of about 0.4 milligrams (mg) thiamethoxam ai/seed, spinosyn A and spinosyn D (spinosad) at a low use rate of about 0.2 mg ai/seed and a high use rate of about 0.6 mg ai/seed, spinetoram at a low use rate of about 0.2 mg ai/seed and a high use rate about 0.6 mg ai/seed, and sulfoxaflor at a low use rate of about 0.2 mg ai/seed and a high use rate about 0.6 mg ai/seed. Each treatment was replicated four (4) times. The canola seeds were planted and then exposed to a natural infestation of the cabbage flea beetles soon after emergence.
Canola plant yield was evaluated at 107 days after the canola seed emerged from the ground described above. […] As depicted in FIG. 4, the low use rate of sulfoxaflor facilitated a canola plant yield similar to that facilitated by the use of Helix Xtra, and the high use rate of sulfoxaflor facilitated improved canola plant yield as compared to the use of Helix Xtra.

canola (Brassica napus) [2] = test: Canola seed treatment field test: canola plant vigor under natural flea beetle infestation; format: in vivo; conditions: 13 days after canola emergence
Experimental: as §1
Canola plant vigor was evaluated at thirteen (13) days after the canola seed emerged from the ground described above. […] As depicted in FIG. 3, both the low use rate of sulfoxaflor and the high use rate of sulfoxaflor facilitated improved canola plant vigor as compared to the use of Helix Xtra.

[3] = high use rate about 0.6 mg ai/seed
[4] = low use rate about 0.2 mg ai/seed

SMILES: CC(c1ccc(C(F)(F)F)nc1)S(C)(=O)=NC#N (stereo not shown) [sulfoxaflor]
- canola plant yield (canola (Brassica napus) [1]; [3]): about 4500 kg/ha
- canola plant yield (canola (Brassica napus) [1]; [4]): about 4050 kilograms (Kg)/hectare (ha)
- canola plant vigor (canola (Brassica napus) [2]; [3]): about 69%
- canola plant vigor (canola (Brassica napus) [2]; [4]): about 87%

Source: patent US20130296384A1, “N-SUBSTITUTED(6 HALOALKYLPYRIDIN 3 YL)ALKYL SULFOXIMINES AS A SEED TREATMENT TO CONTROL COLEOPTERAN INSECTS” (Dow AgroSciences LLC, priority 2012, published 2013)
